The values below come from US5521200A, “2-oxo-pyrrolo[1,2-A]benzimidazole-3-carboxyl derivatives useful in treating central nervous system disorders” (priority 1994, dated 1996).

Experiment [1] has as its system adult male rat (conflict behavior suppressed by punishment). The experiment is described as follows: Suppression of anxiety in the adult male rat (Conflict, Vogel). To be noted: ip, minimum effective dose, greater than 10 = active dose not determined, read-out: Conflict MED. The experiment is classed as in vivo. From the text: The experiment was run the next day.

In experiment [2] the test system is metrazol-induced convulsions in mice. Nature of the experiment: Suppression of Metrazol-Induced Convulsions. The experiment is classed as in vivo, mouse (male CD1 mice). Conditions: Mus musculus, ip, sc metrazol CD90, block of clonic convulsions, greater than 30 = active dose not determined.
The target in experiment [3] is benzodiazepine site of the GABA-A receptor. Nature of the experiment: Benzodiazepine Receptor Binding Assay (inhibition of 3H-flunitrazepam binding). Conditions: ca. 3 nM 3H-flunitrazepam, 10-20 min at 25° C., membranes; over 10,000 = not active.

The term ED50 denotes the dose at which the effect has come halfway, by size or by number of responders. Low readings indicate an effect at a small dose, high ones a need for a large dose. As usually defined, the IC50 is the concentration that inhibits the measured activity by half. Low values mean higher potency, high ones lower potency. `CN(C)c1ccc(NC(=O)C2=C3Nc4ccccc4N3CC2=O)cc1` [CP #2, N-(4-Dimethylaminophenyl)-1,2-dihydro-2-oxo-4H-pyrrolo[1,2-a]benzimidazole-3-carboxamide]: the minimal effective dose in experiment [1] was more than 10 mg/kg. The same molecule returned an ED50 in experiment [2] of more than 30 mg/kg. The IC50 in experiment [3] was found to be 1.74 µM.
The corresponding values for `CCN1C2=C(C(=O)Nc3c(F)cccc3F)C(=O)CN2c2ccccc21` [CP #7, N-(2,6-Difluorophenyl)-1,2-dihydro-4-ethyl-4H-pyrrolo[1,2-a]benzimidazole-3-carboxamide-2(1H)-one] are more than 10 mg/kg, more than 10 mg/kg and more than 10 µM.
For the molecule `O=C1CN2C(=C1C(=O)Nc1ccc(F)cc1F)Nc1ccccc12` [CP #8, N-(2,4-Difluorophenyl)-1,2-dihydro-2-oxo-4H-pyrrolo[1,2-a]benzimidazole-3-carboxamide], the minimal effective dose in experiment [1] was more than 10 mg/kg. The molecule further displayed an IC50 in experiment [3] of more than 10 µM.
For `O=C1CN2C(=C1C(=O)Nc1cc(F)ccc1F)Nc1ccccc12` [CP #3, N-(2,5-Difluorophenyl)-1,2-dihydro-2-oxo-4H-pyrrolo[1,2-a]benzimidazole-3-carboxamide] the same measures were more than 10 mg/kg and more than 10 µM.
As for `CN1C2=C(C(=O)Nc3c(F)cccc3F)C(=O)C(C)(C)N2c2ccccc21` [CP #6, N-(2,6-Difluorophenyl)-1,2-dihydro-1,1,4-trimethyl-4H-pyrrolo[1,2-a]benzimidazole-3-carbozamide-2(1H) one], the minimal effective dose in experiment [1] was more than 10 mg/kg. The molecule further had an ED50 in experiment [2] of 1 to 10 mg/kg. In addition, the IC50 in experiment [3] is more than 10 µM.
For `O=C1CN2C(=C1C(=O)Nc1c(F)cccc1F)Nc1ccccc12` [CP #5, N-(2,6-Difluorophenyl)-1,2-dihydro-2-oxo-4H-pyrrolo[1,2-a]benzimidazole-3-carboxamide] the same measures were less than 10 mg/kg, 6 mg/kg and 0.0801 µM.
As to `O=C1CN2C(=C1C(=O)Nc1ccncc1)Nc1ccccc12` [CP #1, N-(4-Pyridyl)-1,2-dihydro-4H-pyrrolo[1,2-a]benzimidazole-3-carboxamide-2(1H)-one], the minimal effective dose in experiment [1] is more than 10 mg/kg. The ED50 in experiment [2] was more than 10 mg/kg. This molecule registered an IC50 in experiment [3] of 7.22 µM.
